# Measurements from ChEMBL document CHEMBL1201862, “PubChem BioAssay data set” (2004).
#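 Exposure lasted 48 hours, with cells grown in 96-well plates and compounds tested at five concentrations. Abbreviation: GI50, concentration required for 50% inhibition of growth.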 Calls of active or inactive are those of the source. No stated cut-off is given here; in the data, active = GI50 up to about 1.1 µM and inactive = higher.
# Experiments:
# Test in all cases: NCI tumour cell line growth inhibition, 48 h
# SNB-78 = system: SNB-78
# M19-MEL = system: M19-MEL
# DMS-114 = system: DMS-114
# DLD-1 = system: DLD-1
# KM-20L2 = system: KM-20L2
# LXFL 529 = system: LXFL 529
# HOP-18 = system: HOP-18
# XF498 = system: XF498
# RXF 631 = system: RXF 631
SMILES,GI50 (SNB-78),GI50 (M19-MEL),GI50 (DMS-114),GI50 (DLD-1),GI50 (KM-20L2),GI50 (LXFL 529),GI50 (HOP-18),GI50 (XF498),GI50 (RXF 631)
CC(=O)NNc1nc(C)c(C(/C=C/c2ccc(/C=C/C(=N\NC(=O)c3ccncc3)c3sc(NNC(C)=O)nc3C)cc2)=N/NC(=O)c2ccncc2)s1,> 100 µM (inactive),> 100 µM (inactive),> 100 µM (inactive),> 100 µM (inactive),> 100 µM (inactive),> 100 µM (inactive),,,
O=C(CC1(O)C(=O)Nc2c(Cl)ccc(Cl)c21)c1ccc2ccccc2c1 (configuration not stated),14.5 µM (inactive),2.65 µM (inactive),5.78 µM (inactive),17.9 µM (inactive),7.08 µM (inactive),10.2 µM (inactive),12.9 µM (inactive),12.6 µM (inactive),
C=C(C)C1C/C=C(/C)CCCC2(CCC3=C(CC(C(=C)C)C/C=C(/C)CCC3)O2)C(=O)C1 (configuration not stated),> 100 µM (inactive),> 100 µM (inactive),> 100 µM (inactive),> 100 µM (inactive),> 100 µM (inactive),> 100 µM (inactive),> 100 µM (inactive),> 100 µM (inactive),
Nc1c(-c2ccc(-c3c(N)[n+]([O-])c4ccccc4[n+]3[O-])cc2)[n+]([O-])c2ccccc2[n+]1[O-],8.39 µM (inactive),11.3 µM (inactive),3.4 µM (inactive),11.8 µM (inactive),> 10 µM (inactive),7.87 µM (inactive),7.67 µM (inactive),11.5 µM (inactive),
N#Cc1c(CC(=O)O)cc(=O)n2c1[nH]c1ccccc12,> 100 µM (inactive),> 100 µM (inactive),> 100 µM (inactive),> 100 µM (inactive),> 100 µM (inactive),,,,
CCOC(=O)C(Oc1ccc(OC)c2c1C(=O)CCC2)c1ccccc1 (configuration not stated),74 µM (inactive),> 100 µM (inactive),84.7 µM (inactive),> 100 µM (inactive),> 100 µM (inactive),> 100 µM (inactive),,> 100 µM (inactive),
C/C(CC(=O)Nc1cccc([N+](=O)[O-])c1)=N/NC(N)=S,,> 100 µM (inactive),> 100 µM (inactive),> 100 µM (inactive),> 100 µM (inactive),> 100 µM (inactive),,,
Cc1ccc(S(=O)(=O)N/N=C(\c2nc3ccc([N+](=O)[O-])cc3[nH]c2=O)C(O)c2ccc([N+](=O)[O-])cc2)cc1 (configuration not stated),> 100 µM (inactive),> 100 µM (inactive),32 µM (inactive),57.1 µM (inactive),46.2 µM (inactive),46 µM (inactive),,> 100 µM (inactive),
FC(F)(F)c1ccc2nc(Nc3ccc(Cl)c(Cl)c3)c(-c3ccccc3)nc2c1,27.4 µM (inactive),48.5 µM (inactive),,,55.7 µM (inactive),8.3 µM (inactive),> 100 µM (inactive),31.2 µM (inactive),
O=C(NC12CC3CC(CC(C3)C1)C2)C(=O)c1c[nH]c2ccc(Cl)cc12,83.2 µM (inactive),79.1 µM (inactive),66.8 µM (inactive),,5.73 µM (inactive),21.8 µM (inactive),,14.7 µM (inactive),
CCc1ccccc1N1CCN(C(=O)c2cc(OC)c(OC)c(OC)c2)CC1,0.262 µM (active),0.0647 µM (active),0.0561 µM (active),0.2 µM (active),0.0813 µM (active),,,0.115 µM (active),
CN1C(c2ccccc2)CS(=O)(=O)CS1(=O)=O (configuration not stated),> 100 µM (inactive),> 100 µM (inactive),> 100 µM (inactive),> 100 µM (inactive),> 100 µM (inactive),> 100 µM (inactive),> 100 µM (inactive),> 100 µM (inactive),> 100 µM (inactive)
C=CCNc1nc2c(s1)C(=O)c1ccccc1C2=O,24.4 µM (inactive),1.76 µM (inactive),1.77 µM (inactive),,19.1 µM (inactive),11.4 µM (inactive),11 µM (inactive),20.4 µM (inactive),
[O-][Cl+3]([O-])([O-])[O-].c1ccc(-c2csc3c4ccccc4c4ccccc4[n+]23)cc1,2.08 µM (inactive),1.61 µM (inactive),0.394 µM (active),5.58 µM (inactive),5.53 µM (inactive),1.84 µM (inactive),14.3 µM (inactive),1.79 µM (inactive),
O=C1CNC(=O)c2[nH]cnc2N1,> 100 µM (inactive),> 100 µM (inactive),> 100 µM (inactive),> 100 µM (inactive),,> 100 µM (inactive),> 100 µM (inactive),49.3 µM (inactive),39.9 µM (inactive)
CN1C(=O)CC(c2cccc(C3CC(=O)N(C)C3=O)n2)C1=O (configuration not stated),> 100 µM (inactive),> 100 µM (inactive),> 100 µM (inactive),> 100 µM (inactive),> 100 µM (inactive),> 100 µM (inactive),> 100 µM (inactive),,
CC(=O)Nc1[nH]c(=O)[nH]c(=O)c1N(C(C)=O)C(C)=O,> 100 µM (inactive),> 100 µM (inactive),> 100 µM (inactive),> 100 µM (inactive),> 100 µM (inactive),> 100 µM (inactive),,> 100 µM (inactive),
C=C(C)C1CC=C(C)C(O)([C@@]2(O)C[C@H](C(=C)C)CC=C2C)C1 (some centres not stated),30.6 µM (inactive),11.5 µM (inactive),37.3 µM (inactive),30.3 µM (inactive),,26.6 µM (inactive),,14 µM (inactive),
CN1N=C2c3ccccc3OC(c3ccccc3)[C@H]2C1c1ccccc1 (some centres not stated),26.4 µM (inactive),> 100 µM (inactive),44.1 µM (inactive),95.3 µM (inactive),51.2 µM (inactive),37.6 µM (inactive),> 100 µM (inactive),> 100 µM (inactive),
O=c1ncccn1[C@@H]1O[C@H](CO)[C@H](O)C1O (some centres not stated),> 99.5 µM (inactive),> 100 µM (inactive),> 100 µM (inactive),> 100 µM (inactive),> 78 µM (inactive),> 100 µM (inactive),> 100 µM (inactive),> 100 µM (inactive),
N#CCC(=O)NC1C2CC3CC(C2)CC1C3 (configuration not stated),20.5 µM (inactive),24.5 µM (inactive),16 µM (inactive),20.2 µM (inactive),18.2 µM (inactive),28.1 µM (inactive),,,
CCCCC(C)C(OC(=O)CC(CC(=O)O)C(=O)O)C(CC(C)CC(O)CCCCC(O)CC(O)C(C)N)OC(=O)CC(CC(=O)O)C(=O)O (configuration not stated),,> 100 µM (inactive),,> 100 µM (inactive),> 100 µM (inactive),> 100 µM (inactive),> 100 µM (inactive),,> 100 µM (inactive)
CC(=O)NC(CCCCNC(=O)N(C)N=O)C(=O)NCc1ccccc1 (configuration not stated),> 100 µM (inactive),> 100 µM (inactive),> 100 µM (inactive),> 100 µM (inactive),> 100 µM (inactive),> 100 µM (inactive),,> 100 µM (inactive),> 100 µM (inactive)
NNC(=O)/C(=C/c1ccc(Cl)cc1Cl)NC(=O)c1ccccc1,> 100 µM (inactive),> 100 µM (inactive),> 100 µM (inactive),> 100 µM (inactive),,> 100 µM (inactive),> 100 µM (inactive),> 100 µM (inactive),
CSCCC(C(=O)O)N(CC1(O)OCC(O)C(O)C1O)N=O (configuration not stated),> 100 µM (inactive),> 100 µM (inactive),> 100 µM (inactive),> 100 µM (inactive),> 100 µM (inactive),> 100 µM (inactive),,> 100 µM (inactive),> 100 µM (inactive)
CCCCCN(CCCCC)C(=O)[C@@H](CCC(=O)O)NC(=O)c1cc2ccccc2[nH]1,59.6 µM (inactive),22.3 µM (inactive),33 µM (inactive),31.5 µM (inactive),40.5 µM (inactive),41.7 µM (inactive),,26 µM (inactive),
